Results published in patent US20110230481A2, “DERIVATIVES OF TETRABROMOBENZIMIDAZOLE, A PROCESS FOR THE PREPARATION THEREOF, A PHARMACEUTICAL COMPOSITION COMPRISING THE SAME, A METHOD OF USING THE SAME, A METHOD FOR MODULATING OR REGULATING SERINE/THREONINE KINASES, AND SERINE/THREONINE KINASES MODULATING AGENT” (SELVITA S.A., priority 2009, published 2011).

Experiments:
Experiment in all cases: KINOMEscan Max
Type in all cases: binding
[1] = biological target: T1, ASK2 (Homo sapiens, UniProt O95382)
T1 construct: DNA tag (qPCR read-out)
In short: (§1)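 Measures binding, not catalysis: three components (DNA-tagged kinase, immobilized active-site directed ligand, test compound) are combined, and competition is read out by quantitative PCR of the tag.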

[2] = biological target: T2, BRSK2 (Homo sapiens, UniProt Q8IWQ3)
T2 construct: DNA tag (qPCR read-out)
In short: as §1

[3] = biological target: T3, CAMK1G (Homo sapiens, UniProt Q96NX5)
T3 construct: DNA tag (qPCR label); purchased Ambit Kinomescan (contract screening)
T3 sequence (Q96NX5 whole entry): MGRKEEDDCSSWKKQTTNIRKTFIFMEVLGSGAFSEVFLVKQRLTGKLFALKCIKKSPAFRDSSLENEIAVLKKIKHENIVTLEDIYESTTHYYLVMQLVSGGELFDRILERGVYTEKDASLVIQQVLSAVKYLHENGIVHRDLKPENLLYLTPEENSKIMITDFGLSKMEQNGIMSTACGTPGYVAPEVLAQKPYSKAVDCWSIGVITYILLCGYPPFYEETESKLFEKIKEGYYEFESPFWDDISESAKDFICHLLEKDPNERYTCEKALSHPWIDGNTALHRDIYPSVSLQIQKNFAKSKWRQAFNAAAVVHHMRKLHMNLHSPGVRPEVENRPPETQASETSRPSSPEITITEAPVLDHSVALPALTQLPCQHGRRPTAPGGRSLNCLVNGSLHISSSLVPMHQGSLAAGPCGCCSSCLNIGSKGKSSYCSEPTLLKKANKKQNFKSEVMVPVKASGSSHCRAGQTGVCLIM
In short: as §1

[4] = biological target: MST2 (Homo sapiens, UniProt Q13188)
In short: as §1

[5] = biological target: T4, MAP4K4 (Homo sapiens, UniProt O95819)
T4 construct: purchased Ambit Kinomescan (contract screening)
T4 sequence (O95819 whole entry): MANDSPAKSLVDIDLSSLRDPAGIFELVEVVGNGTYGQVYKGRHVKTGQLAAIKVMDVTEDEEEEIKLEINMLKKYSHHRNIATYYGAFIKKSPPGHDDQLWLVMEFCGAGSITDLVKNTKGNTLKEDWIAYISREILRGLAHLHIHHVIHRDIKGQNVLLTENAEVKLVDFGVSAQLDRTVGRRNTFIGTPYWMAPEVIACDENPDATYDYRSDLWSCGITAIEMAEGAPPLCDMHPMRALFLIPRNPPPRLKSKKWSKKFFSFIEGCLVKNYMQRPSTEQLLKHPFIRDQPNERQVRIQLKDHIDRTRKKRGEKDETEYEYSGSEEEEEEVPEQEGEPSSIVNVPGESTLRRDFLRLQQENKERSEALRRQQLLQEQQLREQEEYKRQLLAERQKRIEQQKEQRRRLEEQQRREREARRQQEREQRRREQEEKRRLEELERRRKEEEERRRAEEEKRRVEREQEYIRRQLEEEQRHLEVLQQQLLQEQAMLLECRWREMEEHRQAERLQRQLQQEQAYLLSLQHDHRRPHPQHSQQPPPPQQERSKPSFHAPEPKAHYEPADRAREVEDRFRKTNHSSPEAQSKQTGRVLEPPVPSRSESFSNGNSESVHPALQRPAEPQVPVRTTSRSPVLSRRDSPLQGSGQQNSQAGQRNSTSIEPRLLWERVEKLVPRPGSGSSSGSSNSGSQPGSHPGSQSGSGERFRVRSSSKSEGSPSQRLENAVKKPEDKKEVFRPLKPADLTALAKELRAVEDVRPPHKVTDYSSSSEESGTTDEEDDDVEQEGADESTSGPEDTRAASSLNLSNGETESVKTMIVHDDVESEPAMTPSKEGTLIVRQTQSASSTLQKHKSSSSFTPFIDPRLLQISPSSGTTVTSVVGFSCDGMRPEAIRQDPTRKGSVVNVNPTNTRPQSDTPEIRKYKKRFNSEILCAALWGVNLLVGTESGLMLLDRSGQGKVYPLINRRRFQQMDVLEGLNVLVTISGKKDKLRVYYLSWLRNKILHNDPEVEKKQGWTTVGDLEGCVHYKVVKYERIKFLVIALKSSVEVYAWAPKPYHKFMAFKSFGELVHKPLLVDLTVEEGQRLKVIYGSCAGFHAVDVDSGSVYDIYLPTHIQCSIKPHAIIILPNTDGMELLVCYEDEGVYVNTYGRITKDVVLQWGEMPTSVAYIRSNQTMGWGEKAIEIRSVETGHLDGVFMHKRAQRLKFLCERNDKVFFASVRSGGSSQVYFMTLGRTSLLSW
In short: as §1

[6] = biological target: T5, FLT3(D835Y) (Homo sapiens, UniProt P36888, D835Y)
T5 construct: DNA tag (qPCR read-out); purchased Ambit Kinomescan
In short: as §1

[7] = biological target: T6, EGFR(L747-T751del.Sins) (Homo sapiens, UniProt P00533, DEL747-750/T751S); conditions: 1 μM
T6 construct: purchased Ambit (KINOMEscan Max panel service)
T6 sequence (P00533 with tags, fused parts or gaps DEL747-750/T751S limits assumed): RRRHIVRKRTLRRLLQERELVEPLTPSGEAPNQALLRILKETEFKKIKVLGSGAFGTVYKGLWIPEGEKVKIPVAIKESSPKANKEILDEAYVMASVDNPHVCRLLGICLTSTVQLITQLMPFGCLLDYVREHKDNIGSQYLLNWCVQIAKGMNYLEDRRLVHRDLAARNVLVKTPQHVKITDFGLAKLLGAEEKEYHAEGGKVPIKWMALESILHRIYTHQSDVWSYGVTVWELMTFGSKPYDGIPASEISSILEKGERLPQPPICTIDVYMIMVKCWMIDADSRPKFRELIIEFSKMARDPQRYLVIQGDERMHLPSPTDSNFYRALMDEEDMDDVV
In short: as §1

[8] = biological target: T7, CDK2 (Homo sapiens, UniProt P24941); conditions: 1 μM
T7 construct: purchased Ambit (KINOMEscan Max service)
In short: as §1

[9] = biological target: MKK7 (Homo sapiens, UniProt O14733); conditions: 1 μM
In short: as §1

[10] = biological target: T8, PIK3CG (Homo sapiens, UniProt P48736)
T8 construct: purchased Ambit Kinomescan (contract screening)
In short: as §1

[11] = biological target: T9, PRKD1 (Homo sapiens, UniProt Q15139)
T9 construct: DNA tag (qPCR read-out)
T9 sequence (Q15139 whole entry): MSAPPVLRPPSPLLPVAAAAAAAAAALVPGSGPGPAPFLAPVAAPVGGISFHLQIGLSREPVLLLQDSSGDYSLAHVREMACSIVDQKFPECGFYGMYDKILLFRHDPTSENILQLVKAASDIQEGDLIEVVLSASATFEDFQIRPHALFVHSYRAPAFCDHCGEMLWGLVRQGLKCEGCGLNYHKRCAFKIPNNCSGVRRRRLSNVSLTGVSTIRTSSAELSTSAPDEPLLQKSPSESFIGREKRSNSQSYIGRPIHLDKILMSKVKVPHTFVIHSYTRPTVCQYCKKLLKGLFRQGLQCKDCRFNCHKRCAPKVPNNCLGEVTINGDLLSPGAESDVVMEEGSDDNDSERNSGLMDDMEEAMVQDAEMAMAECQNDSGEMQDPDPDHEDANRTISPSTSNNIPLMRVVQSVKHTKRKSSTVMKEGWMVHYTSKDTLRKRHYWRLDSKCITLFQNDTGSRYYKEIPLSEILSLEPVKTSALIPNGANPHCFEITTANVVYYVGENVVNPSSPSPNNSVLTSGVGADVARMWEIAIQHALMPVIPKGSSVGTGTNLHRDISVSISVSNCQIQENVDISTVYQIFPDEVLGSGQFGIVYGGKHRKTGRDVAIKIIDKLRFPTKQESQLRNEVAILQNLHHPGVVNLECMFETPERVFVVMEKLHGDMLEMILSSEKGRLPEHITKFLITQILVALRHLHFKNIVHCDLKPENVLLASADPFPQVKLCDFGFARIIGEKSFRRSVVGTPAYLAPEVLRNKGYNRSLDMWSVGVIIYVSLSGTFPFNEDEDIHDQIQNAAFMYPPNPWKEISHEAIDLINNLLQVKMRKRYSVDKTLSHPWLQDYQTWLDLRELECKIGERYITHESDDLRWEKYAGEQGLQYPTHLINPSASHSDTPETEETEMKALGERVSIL
In short: as §1

[12] = biological target: T10, RIPK5 (Homo sapiens, UniProt Q6XUX3)
T10 construct: DNA tag (qPCR read-out)
In short: as §1

[13] = biological target: T11, MEK1 (Homo sapiens, UniProt Q02750)
T11 construct: purchased Ambit Kinomescan (contract panel)
T11 sequence (Q02750 whole entry): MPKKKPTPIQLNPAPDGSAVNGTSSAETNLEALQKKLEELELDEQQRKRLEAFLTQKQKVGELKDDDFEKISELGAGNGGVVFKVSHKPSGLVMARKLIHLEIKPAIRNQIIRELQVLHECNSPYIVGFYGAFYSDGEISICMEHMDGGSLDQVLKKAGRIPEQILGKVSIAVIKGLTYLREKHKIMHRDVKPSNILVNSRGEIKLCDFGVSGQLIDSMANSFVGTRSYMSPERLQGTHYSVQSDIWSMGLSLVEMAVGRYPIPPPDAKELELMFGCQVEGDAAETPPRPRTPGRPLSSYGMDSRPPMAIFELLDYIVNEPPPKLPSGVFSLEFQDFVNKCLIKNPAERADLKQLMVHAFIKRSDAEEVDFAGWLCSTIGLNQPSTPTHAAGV
In short: as §1

[14] = biological target: T12, CDC2L2 (Homo sapiens, UniProt Q9UQ88)
T12 construct: purchased Ambit (KINOMEscan Max service)
In short: as §1

[15] = biological target: T13, IKK-epsilon (Homo sapiens, UniProt Q14164)
T13 construct: purchased Ambit Kinomescan (contract panel, KINOMEscan Max)
In short: as §1

[16] = biological target: T14, MKNK2 (Homo sapiens, UniProt Q9HBH9)
T14 construct: DNA tag (qPCR read-out)
T14 sequence (Q9HBH9 whole entry): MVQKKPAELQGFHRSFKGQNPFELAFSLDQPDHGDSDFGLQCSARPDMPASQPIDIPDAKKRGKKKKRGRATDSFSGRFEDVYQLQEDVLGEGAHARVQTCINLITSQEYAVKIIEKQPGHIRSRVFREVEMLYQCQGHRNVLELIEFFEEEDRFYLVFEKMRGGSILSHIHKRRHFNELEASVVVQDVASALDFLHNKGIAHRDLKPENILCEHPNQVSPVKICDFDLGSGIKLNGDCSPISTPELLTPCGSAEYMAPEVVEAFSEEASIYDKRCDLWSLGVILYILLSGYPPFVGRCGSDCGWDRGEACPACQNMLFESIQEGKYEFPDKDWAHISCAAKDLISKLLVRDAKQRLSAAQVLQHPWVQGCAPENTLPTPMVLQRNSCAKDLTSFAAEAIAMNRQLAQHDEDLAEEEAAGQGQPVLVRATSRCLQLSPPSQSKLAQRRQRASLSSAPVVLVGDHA
In short: as §1

[17] = biological target: T15, TLK1 (Homo sapiens, UniProt Q9UKI8)
T15 construct: DNA tag (qPCR read-out)
In short: as §1

[18] = biological target: T16, PIK3CA(Q546K) (Homo sapiens, UniProt P42336, Q546K)
T16 construct: DNA tag (qPCR read-out)
In short: as §1

[19] = biological target: T17, DCAMKL3 (Homo sapiens, UniProt Q9C098)
T17 construct: purchased Ambit (KINOMEscan Max panel service)
In short: as §1

[20] = biological target: T18, EGFR(T790M) (Homo sapiens, UniProt P00533, T790M); conditions: 1 μM
T18 construct: purchased Ambit (KINOMEscan Max panel service)
T18 sequence (P00533 25-1210 T790M): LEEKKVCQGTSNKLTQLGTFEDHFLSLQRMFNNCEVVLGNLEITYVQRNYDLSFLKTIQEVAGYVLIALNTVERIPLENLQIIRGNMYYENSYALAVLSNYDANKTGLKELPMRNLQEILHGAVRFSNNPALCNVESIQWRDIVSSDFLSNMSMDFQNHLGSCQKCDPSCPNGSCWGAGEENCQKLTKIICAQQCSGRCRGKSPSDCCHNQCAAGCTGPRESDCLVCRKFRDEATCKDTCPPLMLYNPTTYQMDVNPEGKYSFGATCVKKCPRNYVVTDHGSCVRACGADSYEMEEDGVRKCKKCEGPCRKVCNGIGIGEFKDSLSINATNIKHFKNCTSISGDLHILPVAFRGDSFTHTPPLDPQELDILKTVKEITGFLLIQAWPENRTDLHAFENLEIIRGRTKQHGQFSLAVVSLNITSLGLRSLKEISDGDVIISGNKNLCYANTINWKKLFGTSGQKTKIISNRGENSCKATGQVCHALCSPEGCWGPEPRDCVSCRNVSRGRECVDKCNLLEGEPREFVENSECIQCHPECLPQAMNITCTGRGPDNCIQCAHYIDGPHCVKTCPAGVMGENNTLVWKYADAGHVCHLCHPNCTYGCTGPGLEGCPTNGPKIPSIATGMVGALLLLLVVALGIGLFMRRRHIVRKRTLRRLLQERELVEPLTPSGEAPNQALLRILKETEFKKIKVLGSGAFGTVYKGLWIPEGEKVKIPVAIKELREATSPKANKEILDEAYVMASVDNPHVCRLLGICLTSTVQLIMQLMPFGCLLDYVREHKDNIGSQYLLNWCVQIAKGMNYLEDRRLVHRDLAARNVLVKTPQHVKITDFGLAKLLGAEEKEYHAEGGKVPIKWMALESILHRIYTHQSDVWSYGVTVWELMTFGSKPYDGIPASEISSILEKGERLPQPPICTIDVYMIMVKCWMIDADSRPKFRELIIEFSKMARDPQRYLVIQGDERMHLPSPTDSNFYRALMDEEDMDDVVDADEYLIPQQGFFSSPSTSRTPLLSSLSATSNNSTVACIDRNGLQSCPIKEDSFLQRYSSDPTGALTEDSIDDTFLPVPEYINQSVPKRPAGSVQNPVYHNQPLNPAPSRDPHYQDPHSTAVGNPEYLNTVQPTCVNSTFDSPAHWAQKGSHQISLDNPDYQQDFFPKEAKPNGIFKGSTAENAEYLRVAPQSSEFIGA
In short: as §1

[21] = biological target: T19, MET(M1250T) (Homo sapiens, UniProt P08581, M1250T); conditions: 1 μM
T19 construct: DNA tag (qPCR read-out)
In short: as §1

[22] = biological target: T20, CDK8 (Homo sapiens, UniProt P49336); conditions: 1 μM
T20 construct: purchased Ambit (KINOMEscan Max service)
In short: as §1

[23] = biological target: T21, PRKCH (Homo sapiens, UniProt P24723)
T21 construct: DNA tag (qPCR read-out); purchased Ambit Kinomescan
In short: as §1

[24] = biological target: T22, FLT3(K663Q) (Homo sapiens, UniProt P36888, K663Q)
T22 construct: purchased Ambit Kinomescan (contract screening)
In short: as §1

[25] = biological target: T23, MAP3K4 (Homo sapiens, UniProt Q9Y6R4)
T23 construct: purchased Ambit Kinomescan (contract panel)
In short: as §1

[26] = biological target: T24, CDK7 (Homo sapiens, UniProt P50613)
T24 construct: DNA tag (qPCR read-out)
In short: as §1

[27] = biological target: T25, ICK (Homo sapiens, UniProt Q9UPZ9)
T25 construct: purchased Ambit Kinomescan (contract panel, KINOMEscan Max)
In short: as §1

[28] = biological target: T26, SgK110 (Homo sapiens, UniProt P0C264)
T26 construct: DNA tag (qPCR read-out)
In short: as §1

[29] = biological target: T27, TAOK3 (Homo sapiens, UniProt Q9H2K8)
T27 construct: purchased Ambit Kinomescan (contract screening service)
In short: as §1

[30] = biological target: T28, PRKCD (Homo sapiens, UniProt Q05655)
T28 construct: DNA tag (qPCR read-out)
In short: as §1

[31] = biological target: T29, DYRK2 (Homo sapiens, UniProt Q92630)
T29 construct: DNA tag (qPCR read-out); purchased Ambit Kinomescan
In short: as §1

[32] = biological target: T30, STK36 (Homo sapiens, UniProt Q9NRP7)
T30 construct: DNA tag (qPCR read-out)
In short: as §1

[33] = biological target: T31, AXL (Homo sapiens, UniProt P30530)
T31 construct: DNA tag (qPCR read-out)
In short: as §1

[34] = biological target: STK33 (Homo sapiens, UniProt Q9BYT3)
In short: as §1

Compound `NCCCNc1nc2c(Br)c(Br)c(Br)c(Br)c2[nH]1` [Compound 11, N-(3-aminopropyl)-4,5,6,7-tetrabromo-1H-benzo[d]imidazol-2-amine] has a remaining binding at 1 µM [1] of 90%, a remaining binding at 1 µM [2] of 91% and a remaining binding at 1 µM [3] of 100%. It also gave a remaining binding at 1 µM [4] of 100%, a remaining binding at 1 µM [5] of 98% and a remaining binding at 1 µM [6] of 10%. The “% binding” value [7] was 100%, the “% binding” value [8] was 71% and the “% binding” value [9] was 100%. The remaining binding at 1 µM [10] was 96%, the remaining binding at 1 µM [11] was 28% and the remaining binding at 1 µM [12] was 100%. The remaining binding at 1 µM [13] was 100%, the remaining binding at 1 µM [14] was 82% and the remaining binding at 1 µM [15] was 100%. The remaining binding at 1 µM [16] was 35%, the remaining binding at 1 µM [17] was 89% and the remaining binding at 1 µM [18] was 100%. The remaining binding at 1 µM [19] was 100%, the “% binding” value [20] was 100% and the “% binding” value [21] was 56%. The “% binding” value [22] was 68%, the remaining binding at 1 µM [23] was 23% and the remaining binding at 1 µM [24] was 97%. For the same compound, the remaining binding at 1 µM [25] was 100%, the remaining binding at 1 µM [26] was 27% and the remaining binding at 1 µM [27] was 100%. The remaining binding at 1 µM [28] was 100%, the remaining binding at 1 µM [29] was 100% and the remaining binding at 1 µM [30] was 56%. For the same compound, the remaining binding at 1 µM [31] was 4.5%, the remaining binding at 1 µM [32] was 100% and the remaining binding at 1 µM [33] was 90%. For the same compound, the remaining binding at 1 µM [34] was 77%.
